# Active and inactive are the calls of the source. The rule behind the calls is not given here.
# Biological target: Microphthalmia-associated transcription factor (Homo sapiens) (UniProt O75030)
# Assay: compounds blocking human MITF signal – biochemical, AlphaScreen, dose response (AID 1259371)
# Conditions: AlphaScreen biochemical MITF assay, signal inhibition
# Sequence of Microphthalmia-associated transcription factor (Homo sapiens) (O75030 whole entry, looked up): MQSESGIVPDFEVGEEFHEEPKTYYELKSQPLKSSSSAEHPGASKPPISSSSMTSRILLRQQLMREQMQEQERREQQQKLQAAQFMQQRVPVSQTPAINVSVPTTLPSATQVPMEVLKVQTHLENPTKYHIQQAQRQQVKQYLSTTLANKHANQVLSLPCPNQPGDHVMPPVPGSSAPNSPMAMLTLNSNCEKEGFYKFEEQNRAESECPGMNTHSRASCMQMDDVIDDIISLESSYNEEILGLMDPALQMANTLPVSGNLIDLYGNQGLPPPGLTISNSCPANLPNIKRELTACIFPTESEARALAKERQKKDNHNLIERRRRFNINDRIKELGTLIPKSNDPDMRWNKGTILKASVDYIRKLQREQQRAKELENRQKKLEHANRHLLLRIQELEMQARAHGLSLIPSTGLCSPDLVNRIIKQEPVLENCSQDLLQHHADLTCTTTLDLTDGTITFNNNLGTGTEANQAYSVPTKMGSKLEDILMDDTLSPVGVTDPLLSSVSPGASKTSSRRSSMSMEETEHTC
row,Compound,IC50
1,O=C1OC(c2cc(C3=N/C(=C\c4ccccc4)C(=O)O3)cc(C3=N/C(=C/c4ccccc4)C(=O)O3)c2)=N/C1=C\c1ccccc1,819 nM
2,C[C@@H](OCc1ccccc1)[C@@H]1NC(=O)[C@H]2CN(C(=O)NC3CCCCC3)CCN2C1=O,inactive
3,OC[C@H]1OC([S-])[C@H](O)[C@@H](O)[C@@H]1O.[Au+] (stereo partly drawn),inactive
4,O=C(O)C1CC=CCC1C(=O)Nc1nncs1 (stereo not drawn),inactive
5,CC[C@H](C)[C@@H]1NC(=O)[C@H]2CN(C(=O)NC3CCCCC3)CCN2C1=O,> 2160 nM (inactive)
6,CC(C)N(C)CCOC(=O)/C=C/c1ccco1,inactive
7,COc1c(O)cc(O)cc1O,inactive
8,O=C(NC1CCCCC1)N1CCN2C(=O)[C@@H]3CSCN3C(=O)[C@H]2C1,inactive
9,CN1CC(=O)N2CCN(C(=O)NC3CCCCC3)C[C@@H]2C1=O,inactive
10,CCN(CC)c1ncnc2c1ncn2[C@@H]1O[C@H](COP(=O)(O)OP(=O)(O)C(Br)(Br)P(=O)(O)O)C(O)[C@@H]1O (stereo partly drawn),175 nM
11,Cc1ccc(-c2ncn(-c3ccc(Nc4cc(-n5cnc(Nc6ccccc6)n5)c(F)cn4)cc3)n2)cn1,inactive
12,O=C(NC1CCCCC1)N1CCN2C(=O)[C@@H]3CCCN3C(=O)[C@H]2C1,inactive
13,Cc1nc(C)n(-c2ccc(Nc3cc(-n4cc(N(c5cccnc5)c5cccnc5)cn4)ccn3)cc2)n1,864 nM
14,O=c1[nH]c(-c2ccco2)nc2sc3c(c12)CCCC3,42.3 nM
15,CCOC(=O)C1C2NC(=S)N(c3ccc(C)cc3)C1(C)Oc1c(OCC)cccc12 (stereo not drawn),> 4890 nM (inactive)
16,O=C1N[C@@H](Cc2ccccc2)C(=O)N2CCN(C(=O)NC3CCCCC3)C[C@H]12,inactive
17,COc1cc(OC)c(CN2CCCC(O)C2)cc1Br (stereo not drawn),> 6480 nM (inactive)
18,O=C(CCCCC1SCC2NC(=O)NC21)NC1(c2ccc3c(c2)OCO3)CCCC1 (stereo not drawn),inactive
19,Cc1cccc(CN2CCN(C3CCC(C)CC3)CC2)c1 (stereo not drawn),> 5540 nM (inactive)

row,Compound,IC50
1,CCOC(=O)C1C2NC(=S)N(CC)C1(C)Oc1ccc(Cl)cc12 (stereo not drawn),inactive
2,c1ccc(-c2ccc(OCCCCn3cncn3)cc2)cc1,inactive
3,CCN1CCN(CCOCCOc2ccc(F)cc2)CC1,> 6480 nM (inactive)
4,O=C(C1CCC(Nc2nccc(-c3ccc4nc(C5CC5)[nH]c(=O)c4c3)n2)CC1)N1CCCC1 (stereo not drawn),inactive
5,CCn1ccnc1CN1CCN(Cc2cccc(OC)c2)C(CCO)C1 (stereo not drawn),> 6480 nM (inactive)
6,O=C(c1ccncc1)N1C2C=CC(C2)C1(C(F)(F)F)C(F)(F)F (stereo not drawn),inactive
7,CC[C@@H]1NC(=O)[C@H]2CN(C(=O)NC3CCCCC3)CCN2C1=O,270 nM
8,O=C(CCCCC1SCC2NC(=O)NC21)NC1(c2ccc(F)cc2)CCCC1 (stereo not drawn),inactive
9,CN1C(=O)[C@H]2CN(C(=O)NC3CCCCC3)CCN2C(=O)[C@@H]1CO,> 6480 nM (inactive)
10,Oc1ccc2c(c1)C1CCCC1(N1CCOCC1)O2 (stereo not drawn),inactive
11,CCc1ccc(NC(=O)CCc2nc(C3=CCN(C)CC3)no2)cc1,inactive
12,NC(=O)Cn1cnc2sc3c(c2c1=O)CCC3,inactive
13,O=[N+]([O-])c1ccc(Br)c2c1no[n+]2[O-],inactive
14,CN(C)[C@@H]1C(=O)C(C(=O)NCN2CCCC2)=C(O)[C@@]2(O)C(=O)C3=C(O)c4c(O)cccc4[C@@](C)(O)[C@H]3C[C@@H]12,425 nM
15,O=P(O)(O)C(O)(CCNC(=S)Nc1ccccc1)P(=O)(O)O,inactive
16,CSc1ccc(C(=O)O)s1,inactive
17,Cc1cc(C)n2nc(N)c(N)c2n1,> 11600 nM (inactive)
18,COc1cc(CN2CCN(C3CCCC3)CC2)cc(OC)c1OC,> 6480 nM (inactive)
19,O=[N+]([O-])c1c(Br)ccc2c1no[n+]2[O-],inactive

# The remaining lines, values ahead:
row,IC50,Compound
1,inactive,O=C1CCCC2=C1C(c1ccc([N+](=O)[O-])o1)C1=C(CCCC1=O)O2
2,> 6710 nM (inactive),O=C(Nc1ccc(Oc2ccccc2)cc1)c1ccnc(-c2cccs2)c1
3,394 nM,O=C1N[C@@H](CSCc2ccccc2)C(=O)N2CCN(C(=O)NCc3ccccc3)C[C@H]12
4,inactive,O=c1cc(/C=C/c2ccc(O)cc2)nc2nn[nH]n12
5,259 nM,COC(=O)c1ccc(=O)c2nc3/c(=C/O)c(O)cc(=O)c3[nH]c12
6,333 nM,Cc1cc2c(c(=O)[nH]1)C(=O)O/C2=C\c1ccc(C)o1
7,916 nM,CC(C)(C)OC(=O)N1C(C(=O)O)CSC1c1cc2c(cc1[N+](=O)[O-])OCO2 (stereo not drawn)
8,> 2370 nM (inactive),O=C(OC1CCOC1=O)c1ccc(S(=O)(=O)NCc2ccco2)cc1 (stereo not drawn)
9,inactive,Cc1cc(N=Cc2ccc([N+](=O)[O-])o2)ccc1S(=O)(=O)O
10,inactive,Clc1ccc2c(c1)CC(c1nc(Nc3cncnc3)c3ccccc3n1)CO2 (stereo not drawn)
11,inactive,O=C(NCc1ccccc1)N1CCN2C(=O)[C@@H]3CCCN3C(=O)[C@H]2C1
12,inactive,O=C(NCC(O)C(=O)N1CCOCC1)c1cccc(Nc2ccc3[nH]ncc3c2)n1 (stereo not drawn)
13,inactive,O=C1N[C@H](Cc2ccccc2)C(=O)N2CCN(C(=O)NCc3ccccc3)C[C@H]12
14,> 7320 nM (inactive),NC(=O)c1ccc(-c2cccs2)s1
15,inactive,CN=C1SC(CC(=O)Nc2cccc(C(=O)O)c2)C(=O)N1C (stereo not drawn)
16,113 nM,COc1cccc(CC(=O)Nc2nnc(-c3ccco3)c(-c3ccco3)n2)c1
17,inactive,COc1ccc(C[C@@H]2NC(=O)[C@H]3CN(C(=O)NCc4ccccc4)CCN3C2=O)cc1
18,> 5660 nM (inactive),O=C(c1cccc(F)c1)N1CCN(Cc2ccncc2)CC1
19,inactive,COc1cccc(CN2CCN(C(=O)c3ccc(F)cc3)CC2)c1
20,inactive,Cc1ccc(S(=O)(=O)C(CNC(=O)c2ccco2)c2cccs2)cc1 (stereo not drawn)
21,inactive,O=C1OC(c2ccc(Cl)cc2Cl)=N/C1=C\c1ccc([N+](=O)[O-])o1
22,641 nM,O=C(O)c1cc2ncc(-c3n[nH]c(-c4cnc5cc(C(=O)O)nn5c4)c3[N+](=O)[O-])cn2n1
23,15.3 nM,Cc1cc2c(c(=O)[nH]1)C(=O)O/C2=C\c1ccco1
24,inactive,CC(Oc1ccc2c(C(F)(F)F)cc(=O)oc2c1)C(=O)NN (stereo not drawn)
25,> 6480 nM (inactive),COC(=O)CCc1cc2c(C)cc(=O)oc2cc1OCc1ccc(C)cc1
26,156 nM,O=S(=O)(O)c1cc(S(=O)(=O)O)c2cc(O)c(S(=O)(=O)O)cc2c1
27,676 nM,CC(C)NC(=O)c1cccc(NC(=O)Nc2ccc(-c3ncnc4[nH]cc(Cl)c34)cc2)c1
28,inactive,COc1ccc(C)cc1NS(=O)(=O)c1ccc2c(c1)CCC(=O)N2

row,IC50,Compound
1,255 nM,Cc1ccc(C)n1C(CC(=O)O)c1ccsc1 (stereo not drawn)
2,393 nM,O=C(COC(=O)/C=C/c1ccco1)NCc1ccco1
3,> 4800 nM (inactive),COc1cccc(C(=O)N2CCN(Cc3cccc(Cl)c3)CC2)c1
4,408 nM,O=C(O)c1cc(NN=C2CCCC2)ccc1Cl
5,inactive,O=C1NC(=O)/C(=C\c2ccc(O)cc2O)S1
6,inactive,Cc1n[nH]c(=O)nc1NNc1ccc(C(=O)O)cc1
7,inactive,NC(=O)CSc1ccc(C(N)=O)cc1[N+](=O)[O-]
8,inactive,C/C(=N\Nc1ccc(S(=O)(=O)O)cc1)c1cccc(Br)c1
9,> 2160 nM (inactive),O=C1N[C@H](Cc2ccc(O)cc2)C(=O)N2CCN(C(=O)NC3CCCCC3)C[C@H]12
10,> 6480 nM (inactive),C=CCc1cc(C)ccc1OCCCCn1ccnc1
11,63.5 nM,Nc1ccc(C(=O)O)c(O)c1
12,2.55 nM,CCOc1cc(-c2ccc(I)o2)cc(=O)c2c(C)oc(C)c12
13,626 nM,O=C(O)c1ccc(-n2cccc2)cc1Cl
14,324 nM,N[C@@H](C(=O)N[C@@H]1C(=O)N2C(C(=O)O)=C(CSC3CNNN3)CS[C@H]12)c1ccc(O)cc1 (stereo partly drawn) (tested in a mixture with another compound)
15,inactive,CN(C)CCCNC(=O)c1cccc(CN(C(=O)c2nc3ccc(-c4cn[nH]c4)cc3s2)C2CC2)c1
16,573 nM,C=C1C(C(=O)NCc2ccco2)C1C(=O)NCc1ccco1 (stereo not drawn)
17,474 nM,Cc1cc(O)c2c(c1)Cc1cccc(O)c1C2=O
18,817 nM,Cc1cc(C)n(C(=O)/C=C/c2ccco2)n1
19,232 nM,O=C1c2c(O)cccc2Cc2cccc(O)c21
20,inactive,N#Cc1cc([N+](=O)[O-])ccc1NC(=O)COC(=O)c1cc(-c2ccco2)nc2ccccc12
21,inactive,CC[C@H](C)[C@@H]1NC(=O)[C@H]2CN(C(=O)Nc3cccc(F)c3)CCN2C1=O
22,inactive,COc1cc(-c2ccnc(N)n2)ccc1NC(=O)[C@H]1COc2ccccc2O1
23,inactive,Cc1ccc(/C(C#N)=C\c2ccco2)cc1
24,693 nM,N#C/C(=C(/O)COC(=O)c1cc2c(s1)CCC2)c1nc2ccccc2[nH]1
25,> 4620 nM (inactive),O=C1OC(c2cccc([N+](=O)[O-])c2)=N/C1=C\c1ccc(OCc2ccccc2)cc1
26,inactive,Cc1sc2nc(C)n3c(=O)n(CC(=O)NCc4ccco4)nc3c2c1C
27,> 2160 nM (inactive),O=C(Nc1ccc(-c2cn[nH]c2)c(C(F)(F)F)c1)C1COc2ccccc2O1 (stereo not drawn)
